How the values were obtained:
[1] = Metabolic stability in human liver microsomes; assay type: ADME, microsome; details: read-out: Stability
[2] = Metabolic stability in mouse liver microsomes; assay type: ADME, microsome; details: read-out: Stability

| microsomal CLint [1] | microsomal CLint [2] | Compound |
| --- | --- | --- |
| 13 µL/min/mg | < 1 µL/min/mg | CNC(=O)c1ccc2c(c1)OC[C@H](N1CCc3c(nn(Cc4ccccc4)c3Cl)C1=O)C(=O)N2C |
| 101 µL/min/mg | 100 µL/min/mg | CN1C(=O)[C@@H](N2CCc3c(nn(Cc4ccccc4)c3Cl)C2=O)COc2ccccc21 |
